Assay results as given in the Deep4Chem optical property database.

Assay: solvent given as SMILES
[1] = in O=P(c1ccccc1)(c1ccccc1)c1ccccc1Oc1ccccc1P(=O)(c1ccccc1)c1ccccc1

Q: For `[O-]c1ccc2ccccc2c1`, which fluorescence lifetime (in O) is on record?
A: 9.43 ns

Q: With `COc1ccc(C(=Cc2ccc(/C=C(\C#N)c3ccccc3)cc2)c2ccc(OC)cc2)cc1` as the compound, how does the fluorescence lifetime (in C1CCOC1) read?
A: 0.5 ns

Q: For `Cc1nn(-c2ccccc2)c(C2=NN(c3ccc(Br)cc3)[C@@H](c3ccccc3)[C@@H]2c2ccccc2)c1C#N`, which fluorescence lifetime (in C1CCCCC1) is on record?
A: 4.73 ns

Q: And the fluorescence lifetime (in C1CCOC1)?
A: 5.04 ns

Q: What about the fluorescence lifetime (in C1COCCO1) of the same compound?
A: 5.21 ns

Q: What about the fluorescence lifetime (in CC#N) of the same compound?
A: 5.05 ns

Q: And the fluorescence lifetime (in CCCCCCC)?
A: 4.64 ns

Q: And the fluorescence lifetime (in CCO)?
A: 4.53 ns

Q: And the fluorescence lifetime (in CN(C)C=O)?
A: 4.95 ns

Q: What about the fluorescence lifetime (in CO) of the same compound?
A: 3.74 ns

Q: And the fluorescence lifetime (in O)?
A: 2.6 ns

Q: And the fluorescence lifetime (in OCCO)?
A: 3.59 ns

Q: What does the source list for `Nc1ccc2c(c1)Cc1ccccc1-2`?
A: fluorescence lifetime (in C1CCCCC1): 5.3 ns; fluorescence lifetime (in CC#N): 3.2 ns; fluorescence lifetime (in CO): 4.5 ns; fluorescence lifetime (in O): 2.1 ns

Q: With `CC(C)(C)c1ccc2c(c1)c1cc(C(C)(C)C)ccc1n2-c1ccc(C#Cc2ccc3c4ccc(C#Cc5ccc(C=C(C#N)C#N)cc5)cc4n(-c4ccc(C(F)(F)F)cc4)c3c2)cc1` as the compound, how does the fluorescence lifetime (in ClCCl) read?
A: 0.29 ns

Q: Which fluorescence lifetime [1] does the source give for `CC1(C)c2ccccc2N(c2ccc3c(c2)Oc2ccccc2S3(=O)=O)c2ccccc21` here?
A: 29 ns

Q: What does the source list for `O=C(O)COc1ccc2[nH]c3c(c2c1)CCCC3=O`?
A: fluorescence lifetime (in C1CCOC1): 0.319 ns; fluorescence lifetime (in C1COCCO1): 0.537 ns; fluorescence lifetime (in CC#N): 0.969 ns; fluorescence lifetime (in CCCCCCCCCCCCO): 1.16 ns; fluorescence lifetime (in CCCCCCCCCCO): 1.14 ns; fluorescence lifetime (in CCCCCCCCO): 1.19 ns; fluorescence lifetime (in CCCCCCO): 1.21 ns; fluorescence lifetime (in CCCCO): 1.11 ns; fluorescence lifetime (in CCO): 1.52 ns; fluorescence lifetime (in CCOC(C)=O): 0.464 ns; fluorescence lifetime (in CN(C)C=O): 1.91 ns; fluorescence lifetime (in CO): 1.72 ns; fluorescence lifetime (in CS(C)=O): 2.34 ns; fluorescence lifetime (in Cc1ccccc1): 0.585 ns; fluorescence lifetime (in O): 1.77 ns; fluorescence lifetime (in c1ccccc1): 0.632 ns

Q: With `CC(C)(C)NC(=O)c1cc2ccc3cccc4ccc(c1C(=O)NC(C)(C)C)c2c34` as the compound, how does the fluorescence lifetime (in ClC(Cl)Cl) read?
A: 17.2 ns

Q: With `COc1cc(N(CC(=O)[O-])CC(=O)[O-])c2ncccc2c1` as the compound, how does the fluorescence lifetime (in O) read?
A: 0.84 ns

Q: With `O=C1c2ccccc2-c2c(-c3ccccc3)c(-c3ccccc3)c(-c3ccccc3)c3cccc1c23` as the compound, how does the fluorescence lifetime (in CC#N) read?
A: 0.6 ns

Q: What about the fluorescence lifetime (in CO) of the same compound?
A: 9.2 ns

Q: Which fluorescence lifetime (in C1CCCCC1) does the source give for `c1ccc(-c2nn(-c3ccccc3)c3nc4ccc(-n5c6ccccc6c6ccccc65)cc4cc23)cc1` here?
A: 17.6 ns

Q: And the fluorescence lifetime (in C1CCOC1)?
A: 19.1 ns

Q: And the fluorescence lifetime (in CC#N)?
A: 21.8 ns

Q: What about the fluorescence lifetime (in CC(C)=O) of the same compound?
A: 21.6 ns

Q: And the fluorescence lifetime (in CCCCCl)?
A: 19.1 ns

Q: What about the fluorescence lifetime (in CCCCOCCCC) of the same compound?
A: 19.4 ns

Q: What about the fluorescence lifetime (in CN(C)C=O) of the same compound?
A: 20.2 ns

Q: For `CC(C)(C)c1ccc2c(c1)c1cc(C(C)(C)C)ccc1n2-c1cccc(-n2c3ccc(C(C)(C)C)cc3c3cc(C(C)(C)C)ccc32)c1C#N`, which fluorescence lifetime (in Cc1ccccc1) is on record?
A: 5 ns

Q: What about the fluorescence lifetime [1] of the same compound?
A: 6.8 ns

Q: For `Cc1ccc(N(c2ccc(C)cc2)c2ccc(-c3ccc(C=C(C#N)C#N)cc3)cc2)cc1`, which fluorescence lifetime (in ClC(Cl)Cl) is on record?
A: 1.06 ns

Q: With `O=Cc1ccc(C#CC(C#Cc2ccc(C=O)s2)=Cc2ccc(C=C(C#Cc3ccc(C=O)s3)C#Cc3ccc(C=O)s3)cc2)s1` as the compound, how does the fluorescence lifetime (in ClC(Cl)Cl) read?
A: 0.8 ns

Q: For `CCOC(=O)COc1ccc(/C=C/c2cc(C)c3n2[B-](F)(F)[N+]2=C(c4[nH]c(C)cc4C)c4ccccc4C2=C3)cc1`, which fluorescence lifetime (in ClCCl) is on record?
A: 5.14 ns

Q: Which results are given for `COc1ccc(C2=C3C=c4c(oc5cc6c(cc45)[C@H]4CC[C@]5(C)C(=O)CC[C@H]5[C@@H]4CC6)=[N+]3[B-](F)(F)n3c2cc2c4cc5c(cc4oc23)CC[C@@H]2[C@@H]5CC[C@]3(C)C(=O)CC[C@@H]23)cc1`?
A: fluorescence lifetime (in CCOC(C)=O): 3.94 ns; fluorescence lifetime (in CCOCC): 4.04 ns; fluorescence lifetime (in CO): 3.71 ns

Q: Which fluorescence lifetime (in ClCCl) does the source give for `CCCCn1c2ccc(C#N)cc2c2cc(C#N)cc(-c3ccc(N(c4ccccc4)c4ccccc4)cc3)c21` here?
A: 1.91 ns

Q: For `O=[N+]([O-])c1ccc(C#Cc2ccc3ccc(C#Cc4ccc([N+](=O)[O-])cc4)cc3c2)cc1`, which fluorescence lifetime (in ClCCl) is on record?
A: 0.27 ns

Q: Which fluorescence lifetime (in ClCCl) does the source give for `c1ccc(C2=C3c4ccccc4C4=[N+]3[B-]3(Oc5ccccc54)Oc4ccccc4-c4c5ccccc5c2n43)cc1` (stereo unspecified) here?
A: 7 ns

Q: With `CCOc1ccc(/C=C/C=C/C=C/c2ccc([N+](=O)[O-])cc2)cc1` as the compound, how does the fluorescence lifetime (in Cc1ccccc1) read?
A: 1.5 ns

Q: Which fluorescence lifetime (in ClCCl) does the source give for `CC[B-]1(CC)c2cccc3cc4ccccc4c(c23)-c2cccc(C)[n+]21` here?
A: 4.1 ns

Q: For `CN(C)CCCN1c2ccccc2CCc2ccccc21`, which fluorescence lifetime (in CC#N) is on record?
A: 0.85 ns

Q: And the fluorescence lifetime (in CO)?
A: 0.54 ns

Q: And the fluorescence lifetime (in O)?
A: 1.12 ns
